# Reference: patent US12485078B2, “Personal dental care product for caries treatment” (Credentis AG, priority 2016, dated 2025)
# No end group written: not given here.
# Legend:
# [1] = pH at which the peptide starts to undergo self-assembly; format: physicochemical; conditions: in solution
# Excerpt: As used herein, the pH at which the self-assembling peptide starts to undergo self-assembly refers to the pH below which a significant extent of self-assembly of the peptides in solution is observed, which means that at least about 25%, about 30%, about 35%, about 40%, about 45%, about 50%, about 55%, about 60%, about 65%, about 70%, about 75%, about 80%, about 85%, about 90%, about 95%, about 99% or even about 100% of the peptides found in the dental care product are assembled. In a preferred embodiment, at least about 25% of the peptides found in the dental care product are assembled below the pH at which the peptide starts to undergo self-assembly.
# Further, the skilled person is aware of numerous methods to determine the pH at which a peptide of the present invention will start self-assembly at a given ionic strength. Suitable methods are denoted e.g. in a publication by Aggeli et al. (2003, J Am Chem Soc, 125, 9619-9628).
# [2] = Penetration of P11-4 (200 ppm, spiked with 10 ppm ATTO647-P11-4, 25 mM TRIS) into artificial subsurface lesions, confocal microscopy; design: species or system human
# Protocol: Creation of artificial lesions on extracted human molar teeth was performed as described by Lo et al. 2010 (J Dent. 38(4):352-359). To define the position of the demineralized subsurface area (i.e., artificial carious lesion or white spot), the tooth was covered with colourless nail varnish, leaving a window of approximately 4×4 mm. The tooth was placed in demineralization buffer (2.2 mM CaCl2, 2.2 mM NaH2PO4, 50 mM acetic acid; pH adjusted with 1 M KOH to 4.4) for 3 d at 37° C. To ensure that all pores are open, as in a typical active caries lesion, the resulting subsurface lesions were treated with 10 μL of 2% NaClO (incubation for 1 min), rinsed, and air-dried at room temperature.
# • A 200 ppm (i.e., 200 μg/ml) solution of P11-4 (SEQ ID NO: 2), spiked with 10 ppm ATTO647-P11-4 (fluorescence labelled P11-4 (SEQ ID NO: 6): Ac-QQRFEWEFEQQSGSGC-(ATTO647)-NH2), i.e., 1:20, in 25 mM TRIS buffer was prepared at different pH, in particular, at 8.4 or 8.5 or 6.3, 6.5 or 6.8) • As specified in the table below, tooth were optionally pretreated, e.g., by incubation in human saliva for one day (about 24 hours), optionally followed by 5 min sonication (258 hz with a sonic toothbrush, Sonicare Diamond Clean® (Philips)) or by immersion in 2% NaClO for 1 min. • Tooth were immersed in the P11-4 solution for a defined period of time, 1, 2 or 5 min, and then removed and washed in water for 10 min or in remineralization buffer (2 mM Ca(NO3), 1.2 mM KHPO4, and 60 mM Tris/HCl, pH adjusted to 7.4 with 1 M KOH) for 4 days and/or 6 days. • Confocal assessment after 1, 2 or 5 min incubation was carried out while the teeth were in P11-4 solution, and optionally, after washing in water or in remineralization buffer after 10 min or 4 or 6 days. c) Confocal Microscopy
# Samples were placed in a μ-slide I (ibidi, Martinsried) in dest. water and analyzed by a confocal laser microscope (Olympus IX81). The recorded stack of four 2-dimensional images each projected the lesion volume of 51.4 μm thickness, giving a total assessment depth of 205 μm (objective: UPLSAPO 20×/NA 0.75; helium-neon gas laser; excitation: 633 nm and emission: 668 nm). Images were analyzed by Olympus software (FluoView FV1000).
# [3] = self-assembling kinetic by quartz crystal microbalance with dissipation monitoring (QCM-D, FIG. 7); format: physicochemical; conditions: 10 mg/ml P11-4 in PBS pH 8.5 on P11-4 coated amine-coupling sensor
# Protocol: P11-4 peptide was layered on the surface of the amine-coupling sensor at 1 mg/ml in PBS at pH8.5. After 1 hour and 1 hour 25 minutes, the sensor was washed with PBS pH 8.5. After 1 hour and 38 minutes, 10 mg/ml P11-4 peptide in PBS pH 8.5 were injected. After 2 hours, 0.1 M HCl were injected to induce self-assembly.
# It can be seen that essentially complete self-assembly has occurred about 30 min after injection of 0.1 M HCl. Resonance frequency F (left scale, Hz) and energy dissipation factor D (right scale), triangle=frequency, square=dissipation are shown.
# [4] = self-assembling kinetic by measurements of elastic modulus G' (FIG. 6); format: physicochemical; conditions: 15 mg/ml; neutral pH; independent of ionic strength (buffers 140-165 mM); 0.1% strain, 37° C., 1 rad/second
# Protocol: P11-4 was prepared at 15 mg/ml with different buffer compositions (see below) measured at 0.1% strain, 37° C. and a frequency of 1 rad/second. Self-assembly of peptide monomers to polymers takes more than 5 min independent of the used ionic strength at neutral pH. • Squares (top line of symbols)−NaCl: Tris (0.055 M)+NaCl, final ionic strength 142 mM; • Artificial saliva (second line of symbols from top): Tris, Ca(NO3)2, KH2PO4 (ratio 0.77:0.14:0.08), ionic strength 142 mM; • Dulbecco's Modified Eagle Medium (DMEM): NaCl, NaHCO3, KCl, CaCl2, MgSO4 (ratio 0.66:0.4:0.05:0.02:0.007), ionic strength 165 mM; • MgSO4: 0.055 M Tris+0.192 M MgSO4 0.14 M Ionic strength
sequence,measurement,setting,value
QQRFEWEFEQQ [self-assembling peptide of 11 amino acids],pH at which the self-assembling peptides start to undergo self-assembly,[1],about 7.5
same,peptide in the lesions after 4 days' incubation in remineralization buffer,"[2]; pH8.5, FIG. 9Be",Lower but significant amounts
same,peptide in the lesions after 1 min incubation,"[2]; pH8.5, teeth 10 and 1, FIG. 9Bb",already detectable
same,peptide in the lesions after 2 min or 5 min incubation,"[2]; pH8.5, teeth 10 and 1, FIG. 9Bc, 9Bd",most peptide was detected
same,effect of incubation in remineralization buffer after contact with P11-4 containing solution,[2]; remineralization buffer versus water wash (tooth 10 versus tooth 2),improves maintenance of the self-assembling peptide in the lesion
same,effect of pellicle formation by saliva on infiltration at pH 6.3-6.8,"[2]; teeth 3, 13",further decreased infiltration by peptide
same,peptide detectable in the lesions after incubation at pH 6.3-6.8 (polymerized form),"[2]; teeth 4, 12, 3, 13, versus incubation at pH 8.4 or 8.5",lower amounts of peptide
same,negative effect of pellicle after cleaning by sonication or NaClO,"[2]; teeth ZR3 (sonication) and ZR2 (NaClO), after incubation with human saliva",could be compensated for
same,effect of sonification pretreatment before incubation on peptide in the lesions,"[2]; tooth ZR1, pH 8.5",increased presence of peptide in the lesions
same,peptide detected after pellicle formation and cleaning by sonification,[2]; versus no pre-incubation with saliva,even higher amounts than without pre-incubation with saliva
same,time to essentially complete self-assembly after injection of 0.1 M HCl,[3],about 30 min
same,time for self-assembly of peptide monomers to polymers,[4],more than 5 min
